# No end group written: not given here.
# What was measured:
# [1] = test system: tumor-associated lymphocyte (TAL); details: cited from earlier work
# [2] = Booster study: local reactions (LR) 48-72 hours after each booster, safety; assay type: in vivo, human; details: 500 mcg peptide + 250 mcg GM-CSF booster
# Excerpt: Booster inoculations of peptide vaccines may improve disease-free survival (DFS) (e.g., U.S. Pat. No. 8,222,214), but repeated boosting can theoretically lead to overstimulation and loss of vaccine-induced T cells. Therefore, to assess the use of the attenuated E39′ peptide as a booster, E39-vaccinated patients described in Example 1 were randomized to receive either E39 or E39′ as a booster to determine the effect on long-term E39-specific immunity. Patients in the VG received six intradermal E39 injections as described in Example 1 as a primary vaccination schedule (PVS). […]
# Local reactions (LR) were recorded 48-72 hours after each booster. Immune response was determined by measurement of E39 specific CTL levels using a Dextramer reagents in accordance with the manufacturer's instructions (Immudex Limited, Copenhagen, Denmark) as previously described (e.g., Tario et al. Cytometry B Clin. Cytom. 2015; 88B:6-20; Baba J. Transl Med. 2010; 8:84), at R0 (baseline pre-vaccination), RC1(1 month after completion of PVS), RC6 (6 months after completion of PVS and before booster), RC7 (1 month after booster) and RC12 (6 months after booster and 12 months after completion of PVS). Demographic, safety, immunological, and DFS data were collected and evaluated.
# [3] = design: species or system human; details: in vivo
# Excerpt: Eligible patients were identified with endometrial, ovarian, fallopian tube or peritoneal cancer and were disease-free after standard of care therapies. Patients were surgically or naturally post-menopausal. Exclusion criteria included patients currently receiving immunosuppressive therapy to include chemotherapy, steroids or methotrexate, poor health (ECOG […]), evidence of end-organ dysfunction, pregnancy, breast feeding, history of autoimmune disease, and involvement in other experimental protocols (except with permission of the principal investigator of the other study). […]
# The E39 peptide (FBP 191-199, EIWTHSYKV) was produced commercially by an FDA-compliant production facility for patient use. […] This dose (250 mcg) of GM-CSF has been previously determined to be a safe and effective dose, based on our prior work with NeuVax^6. […]
# The phase I portion of this trial consisted of dose escalation to determine a safe and effective dose of the E39 peptide. […] Prior to the fourth inoculation, each patient was assessed for liver, renal, and hematopoietic dysfunction. […]
# Standard local and systemic toxicities were collected and graded per the National Cancer Institute Common Terminology Criteria for Adverse Events, v4.03 toxicity scale. […] Systemic toxicity and inoculation site local reactions were also determined after 48-72 hours.
substance,measurement,setting,value
"E41: FRα-derived immunogenic peptide E41 (FRα 245-253) (LLSLALMLL; UniProt P15328 245-253, looked up, fragment)",effect on TAL proliferation and anti-tumor function,[1],capable of enhancing tumor-associated lymphocyte (TAL) proliferation and anti-tumor function
"EIWTFSTKV [E39′, EIWTFSTKV]",safety of booster,[2],safe
"EIWTHSYKV [E39, EIWTHSYKV]",patients experiencing grade 3 toxicity,[3],1 patient
